Reference: the NIST ThermoML archive (doi:10.1021/je3011979)
Numbers after ± are expanded uncertainties.

Experiments:
[1] = excess molar enthalpy (molar enthalpy of mixing); xn = mol fraction of the nth substance listed; settings: 101 kPa, Liquid, Calvet calorimetry
[2] = xn = mol fraction of the nth substance listed; settings: 291.15 K, 101 kPa, Liquid, Vibrating tube method

CCCOC(C)=O [propyl ethanoate] + CCCCCCCC
[1]
Settings | excess molar enthalpy [kcal/mol]
291.15 K, x1 = 0.0879 | 0.109 ± 0.00167
291.15 K, x1 = 0.1784 | 0.183 ± 0.00191
291.15 K, x1 = 0.2664 | 0.2424 ± 0.00215
291.15 K, x1 = 0.3472 | 0.2808 ± 0.00239
291.15 K, x1 = 0.4208 | 0.3023 ± 0.00263
291.15 K, x1 = 0.486 | 0.3102 ± 0.00263
291.15 K, x1 = 0.5436 | 0.3088 ± 0.00263
291.15 K, x1 = 0.5927 | 0.3004 ± 0.00263
291.15 K, x1 = 0.618 | 0.2913 ± 0.00239
291.15 K, x1 = 0.6703 | 0.2722 ± 0.00239
291.15 K, x1 = 0.7256 | 0.2438 ± 0.00215
291.15 K, x1 = 0.7843 | 0.206 ± 0.00191
291.15 K, x1 = 0.8412 | 0.164 ± 0.00191
291.15 K, x1 = 0.8983 | 0.112 ± 0.00167
291.15 K, x1 = 0.9546 | 0.0557 ± 0.00143
298.15 K, x1 = 0.0883 | 0.103 ± 0.00143
298.15 K, x1 = 0.1747 | 0.174 ± 0.00191
298.15 K, x1 = 0.2568 | 0.2309 ± 0.00215
298.15 K, x1 = 0.3398 | 0.2701 ± 0.00239
298.15 K, x1 = 0.4117 | 0.2913 ± 0.00239
298.15 K, x1 = 0.4788 | 0.3004 ± 0.00263
298.15 K, x1 = 0.5346 | 0.2985 ± 0.00239
298.15 K, x1 = 0.5849 | 0.2913 ± 0.00239
298.15 K, x1 = 0.6055 | 0.2866 ± 0.00239
298.15 K, x1 = 0.655 | 0.2722 ± 0.00239
298.15 K, x1 = 0.7074 | 0.2507 ± 0.00215
298.15 K, x1 = 0.7607 | 0.222 ± 0.00215
318.15 K, x1 = 0.0767 | 0.0942 ± 0.00167
318.15 K, x1 = 0.1676 | 0.177 ± 0.00191
318.15 K, x1 = 0.2591 | 0.2433 ± 0.00215
318.15 K, x1 = 0.3352 | 0.2818 ± 0.00239
318.15 K, x1 = 0.4086 | 0.305 ± 0.00263
318.15 K, x1 = 0.4719 | 0.3117 ± 0.00263
318.15 K, x1 = 0.5293 | 0.3098 ± 0.00263
318.15 K, x1 = 0.5791 | 0.3004 ± 0.00263
318.15 K, x1 = 0.5859 | 0.2983 ± 0.00263
318.15 K, x1 = 0.6316 | 0.2847 ± 0.00239
318.15 K, x1 = 0.6848 | 0.2648 ± 0.00239
318.15 K, x1 = 0.7377 | 0.2392 ± 0.00215
318.15 K, x1 = 0.7936 | 0.2065 ± 0.00191
318.15 K, x1 = 0.8521 | 0.163 ± 0.00191
318.15 K, x1 = 0.9064 | 0.114 ± 0.00167
318.15 K, x1 = 0.9555 | 0.0595 ± 0.00167

[2]
Settings | mass density [kg/m3]
x1 = 0.012 | 705.7 ± 0.3
x1 = 0.0405 | 708.9 ± 0.3
x1 = 0.1465 | 721.9 ± 0.3
x1 = 0.1905 | 727.8 ± 0.3
x1 = 0.2679 | 738.6 ± 0.3
x1 = 0.3573 | 752.2 ± 0.3
x1 = 0.4206 | 762.5 ± 0.3
x1 = 0.4808 | 772.7 ± 0.3
x1 = 0.5357 | 782.6 ± 0.3
x1 = 0.6206 | 798.8 ± 0.3
x1 = 0.6668 | 808.1 ± 0.3
x1 = 0.7082 | 816.9 ± 0.3
x1 = 0.7644 | 829.3 ± 0.3
